Converted amounts (≈) assume the structure as drawn.
Columns and labels:
[1] = tested on: S. aureus 25923; experiment: Broth microdilution MIC, S. aureus 25923; assay type: cell-based, Staphylococcus aureus; settings: Staphylococcus aureus, 25923; read-out: MIC (S. aureus 25923)
[2] = tested on: MRSA 33591; experiment: Broth microdilution MIC, MRSA 33591; assay type: cell-based; settings: Staphylococcus aureus, read-out: MIC (MRSA 33591)
[3] = tested on: S. aureus 29213; experiment: Broth microdilution MIC, S. aureus 29213; assay type: cell-based, Staphylococcus aureus; settings: Staphylococcus aureus, 29213; read-out: MIC (S. aureus 29213)
[4] = tested on: VRSA; experiment: MIC against VRSA (Table 2); assay type: cell-based; settings: Staphylococcus aureus, read-out: MIC (VRSA)
[5] = tested on: S. aureus VRS-2; experiment: VRSA thigh infection model in neutropenic mice; assay type: in vivo, mouse; settings: 50 mg/kg PO BID q12h, 26 h post-infection, p<0.05
Experimental: (§1) FIG. 8 is a plot comparing the efficacy of linezolid, Compound 4 (AV-0273), and Compound 8 (AV-0267) in the S. aureus VRS-2 thigh infection model, CFU/g thigh. Test animals were rendered neutropenic with cyclophosphamide administration, 150 mg/kg on Day −4 then 100 mg/kg on Day −1 prior to infection on Day 0. On Day 0, animals were intramuscularly inoculated with 8.4×10^4 CFU/mouse (0.1 mL/animal) of the S. aureus VRS-2 strain. The vehicle and the test articles, Compound 4 (AV-0273) and Compound 8 (AV-0267), both at 100 mg/kg, were each intraperitoneally (IP) administered twice with a 12 h interval (BID q12h) at 2 and 14 h after infection. The reference standard, linezolid at 50 mg/kg, was orally (PO) administered BID q12 h starting at 2 h post-infection. Animals were sacrificed at 2 or 26 h post-infection, and the thigh tissues were harvested and weighed from each of the test animals. The bacterial counts (CFU/g thigh) of thigh tissue homogenates were measured.
as §1, with “FIG. 9” for “FIG. 8”, “of linezolid” for “of linezolid,”, “CFU/g thigh, change in bacterial counts relative to baseline count at 26h post-infection. Data represent the change in bacterial counts in thigh tissue following test article treatment relative to the initial 2 h CFU/g thigh or CFU/thigh at the time of dosing (baseline counts).” for “CFU/g thigh.”, “(BID q12 h)” for “(BID q12h)”, “(CFU/g thigh and CFU/thigh)” for “(CFU/g thigh)”, “were compared.” for “were measured.”
Example vancomycin-2,3-pyrrolidinediones conjugates were evaluated using an in vivo tissue infection model with vancomycin resistant MRSA:
Animal model: Murine thigh infection
Bacteria: VRSA (VRS-2). Gram Positive, Staphylococcus aureus (VRSA, VRS-2), Mouse Infected Thigh Model. VRS-2 is VanA producing SCC Mec II st5 train.
Vancomycin conjugates dose: 100 mg/Kg intraperitoneally (IP).
Application: This model assesses the antimicrobial efficacy of test articles in a tissue infection model with vancomycin resistant MRSA. Microbial counts are measured. […]

SMILES	MIC [1]	MIC [2]	MIC [3]	MIC [4]	reduction in bacterial counts compared to the vehicle control group [5]
CCC1C(c2ccc(C(F)(F)F)cc2)=C(O)C(=O)N1CCCCNC (stereo not shown) [Compound 2]	2 µg/mL (≈ 5.61 µM)	2 µg/mL (≈ 5.61 µM)	1 µg/mL (≈ 2.81 µM)		
CCC1C(c2ccc(C(F)(F)F)cc2)=C(O)C(=O)N1CCCCCCNC (stereo not shown) [Compound 3]	2 µg/mL (≈ 5.2 µM)	2 µg/mL (≈ 5.2 µM)	2 µg/mL (≈ 5.2 µM)		
CCC1C(c2ccc(C(F)(F)F)cc2)=C(O)C(=O)N1c1ccc(NC)cc1 (stereo not shown) [Compound 5]	2 µg/mL (≈ 5.31 µM)	1 µg/mL (≈ 2.66 µM)	1 µg/mL (≈ 2.66 µM)		
CCC1C(c2ccc(C(F)(F)F)cc2)=C(O)C(=O)N1CCOCCNC (stereo not shown) [Compound 6]	1 µg/mL (≈ 2.69 µM)		1 µg/mL (≈ 2.69 µM)		
CCC1C(c2ccc(C(F)(F)F)cc2)=C(O)C(=O)N1CCOCCOCCOCCNC (stereo not shown) [Compound 7]	2 µg/mL (≈ 4.34 µM)	1 µg/mL (≈ 2.17 µM)	1 µg/mL (≈ 2.17 µM)	4 µg/mL (≈ 8.69 µM)	
CCC1C(c2ccc(C(F)(F)F)cc2)=C(O)C(=O)N1CCCNCCCCNCCCNC (stereo not shown) [Compound 9b]	0.5 to 1 µg/mL (≈ 1.06 to 2.13 µM)	1 µg/mL (≈ 2.13 µM)	1 µg/mL (≈ 2.13 µM)		
CCC1C(c2ccc(C(F)(F)F)cc2)=C(O)C(=O)N1CCN(CCNC)CCN1C(=O)C(O)=C(c2ccc(C(F)(F)F)cc2)C1CC (stereo not shown) [Compound 10]	16 µg/mL (≈ 23.9 µM)	8 µg/mL (≈ 12 µM)	8 µg/mL (≈ 12 µM)		
CC(=O)NC[C@H]1CN(c2ccc(N3CCOCC3)c(F)c2)C(=O)O1 [Linezolid, reference compound]					100%

— patent US20250312258A1, “2,3-PYRROLIDINEDIONE CONJUGATES AND METHODS OF USING THEREOF” (North Carolina State University, priority 2022, published 2025)
